These results are taken from publication PMC10528299, “Targeting FAK/PYK2 with SJP1602 for Anti-Tumor Activity in Triple-Negative Breast Cancer” (Current Issues in Molecular Biology, 2023).

Series [1] concerns MDA-MB-231 cells. The series is described as follows: Transwell cell migration assay. It is filed as cell-based, human. Conditions: 5 µM, 16 h. The procedure: Cell migration capacity was analyzed using the transwell migration assay. The 24-well chambers (8 μm pore size) were obtained from Corning (Corning, NY, USA). Cells treated with vehicle or FAK inhibitors (SJP1602, VS-6063, GSK2256098) at a concentration of 5 μM were resuspended in serum-free media and 5 × 10^4 cells were added to the upper compartment of the transwell chambers. Fresh culture medium with 5% FBS was added to the lower compartment. After 16 h, cells on the upper side of the filter were removed using cotton swabs. The underside of the filter was fixed in 100% methanol, washed in PBS, and stained using crystal violet. Migrated cells were analyzed using a microscope (Nikon, TE2000). Image analysis was performed using the color analysis function in Adobe Photoshop 2021 (Version 22.4.2, Adobe (San Jose, CA, USA)). Quantitative data were obtained from color measurement records in Adobe Photoshop 2021.

The target of series [2] is T1, FAK [pY397] in MDA-MB-231 cells (Homo sapiens, UniProt Q05397).
T1 construct: endogenous in cells; host or cells: MDA-MB-231
T1 sequence (Q05397 whole entry): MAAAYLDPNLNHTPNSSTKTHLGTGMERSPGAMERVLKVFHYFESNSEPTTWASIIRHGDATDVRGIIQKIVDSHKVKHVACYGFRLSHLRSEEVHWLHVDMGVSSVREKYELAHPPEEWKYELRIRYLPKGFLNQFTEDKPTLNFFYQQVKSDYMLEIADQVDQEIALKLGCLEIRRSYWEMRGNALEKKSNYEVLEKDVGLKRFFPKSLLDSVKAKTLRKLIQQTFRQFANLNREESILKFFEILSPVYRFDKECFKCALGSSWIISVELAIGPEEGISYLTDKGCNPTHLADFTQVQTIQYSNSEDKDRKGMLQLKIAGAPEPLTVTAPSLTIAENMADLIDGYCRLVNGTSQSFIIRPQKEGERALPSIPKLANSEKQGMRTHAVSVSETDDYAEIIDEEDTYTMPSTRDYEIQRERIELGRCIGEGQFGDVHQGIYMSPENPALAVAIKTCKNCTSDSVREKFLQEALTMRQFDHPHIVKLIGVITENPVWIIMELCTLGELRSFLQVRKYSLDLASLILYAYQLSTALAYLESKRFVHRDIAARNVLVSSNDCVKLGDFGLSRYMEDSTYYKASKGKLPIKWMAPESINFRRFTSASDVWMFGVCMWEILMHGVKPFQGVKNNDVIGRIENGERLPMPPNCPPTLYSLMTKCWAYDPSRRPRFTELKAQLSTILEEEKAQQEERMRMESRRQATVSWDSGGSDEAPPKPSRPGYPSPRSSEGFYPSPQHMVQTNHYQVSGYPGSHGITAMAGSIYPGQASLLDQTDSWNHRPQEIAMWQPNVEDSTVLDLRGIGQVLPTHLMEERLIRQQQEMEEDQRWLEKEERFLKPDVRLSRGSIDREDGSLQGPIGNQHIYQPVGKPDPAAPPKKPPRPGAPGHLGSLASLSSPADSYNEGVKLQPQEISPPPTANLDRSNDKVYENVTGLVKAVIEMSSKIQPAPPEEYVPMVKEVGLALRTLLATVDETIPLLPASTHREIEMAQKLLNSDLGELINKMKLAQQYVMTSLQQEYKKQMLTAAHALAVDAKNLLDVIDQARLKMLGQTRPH
The series is described as follows: FAK [pY397] ELISA in MDA-MB-231 cells. The note with it: MDA-MB-231, 1 h treatment, mean ± SEM (n = 3); read-out: IC50 FAK phosphorylation (pY397 ELISA). The class given is cell-based. How it is done: (§1) TNBC cells were seeded into 60 mm dishes at a density of 1 × 10^6 cells/dish in 5 mL of culture media. After 24 h, cells were treated with concentrations ranging from 1 nM to 10 μM of SJP1602 for 1 h, and cell lysates were prepared to detect phospho-FAK levels. The FAK [pY397] enzyme-linked immunosorbent assay was performed according to the manufacturer’s instructions. The absorbance at 450 nm was measured to quantify the results.
A general note: In an ELISA, binding on a coated surface is turned into a signal by an enzyme label.

In the next series the target is T2, FAK (Homo sapiens, UniProt Q05397).
T2 construct: purchased Promega V1971
T2 sequence (Q05397 whole entry): as above
The experiment in a line: ADP-Glo kinase assay FAK. It is filed as biochemical. The note with it: mean ± SEM (n = 3). The procedure:
(§2) The kinase assays were performed and quantified according to the manufacturer’s instructions using the ADP-Glo™ Kinase Assay Kit for FAK (Promega, V1971), PYK2 (Promega, V4083) and InsR (Promega, V3901). Each kinase reaction mixture was prepared to contain the compounds of interest. After thorough pipetting, 25 μL of the mixture was added to each well and incubated for 1 h at room temperature. Subsequently, 25 μL of ADP-Glo reagent was added, followed by a 40 m incubation at room temperature. Next, 50 μL of the kinase detection reagent was added, and the mixture was incubated for an additional 30 m at room temperature. Luminescence was measured using the Tecan Spark 10M (Integration time: 1 s) (Männedorf, Switzerland).
Background: In ADP-Glo the light output rises with the ADP produced.

Series [3] can be described thus: Cytotoxicity on normal cell line WI38. It is filed as cell-based. Conditions: human, WI38 cells (normal cell line); read-out: Cytotoxicity on Normal Cell Lines IC50.
Series [4] in a line: Toxicity and body weight in xenograft mice. Conditions: mouse xenograft experiments, 20-80 mg/kg po daily.
Experimental: (§3) Upon establishment of tumors, with an average tumor volume reaching approximately 100 mm^3, mice were grouped and subjected to daily oral dosing. […] The duration of drug administration was defined for 2 weeks based on the growth rate of the vehicle group of each xenografted tumor. The tumor volume was measured three times a week for potency measurement, and the body weight of mice was also measured three times a week for toxicity evaluation in vivo.
A further series concerns the target T3, PYK2 (Homo sapiens, UniProt Q14289).
T3 construct: purchased Promega V4083
The experiment in a line: ADP-Glo kinase assay PYK2. It is filed as biochemical. The note with it: mean ± SEM (n = 3). How it is done: as §2

Series [5] is described as follows: Cytotoxicity on normal cell line CCD-18Co. Conditions: human, CCD-18Co cells (normal cell line); read-out: Cytotoxicity on Normal Cell Lines IC50. The class given is cell-based.
Series [6] in a line: Cytotoxicity on normal cell line Fa2N4. The class given is cell-based. The note with it: human, Fa2N4 cells (normal cell line); read-out: Cytotoxicity on Normal Cell Lines IC50.
In series [7] the test system is MDA-MB-231, 4T1, and Hs578T cells. The series is described as follows: 3D cell invasion assay. The class given is cell-based. Conditions: 1 µM, 72 h, compared to VS-6063 and GSK 2256098. The procedure:
Cells were added to an ultra-low 96-well round-bottom plate at a density of 5 × 10^3 cells/well and cultured for 3 days to form spheroids. The medium was removed, and a mixture of neutralized Type I Collagen and Matrigel was added to the wells. After 1 h of incubation, compound concentrations (2×) in 100 μL of solution were added per well. The plate was then incubated for 72 h. Relative invasion was quantified based on the following formula using the microscope and imaging software ImageJ (Version 2.1.0/1.54e, National Institutes of Health, Bethesda, MD, USA):Relative invasion = (total area of compound treated group − spheroid area of compound treated group/(total area of control − spheroid area of control)(1)

Series [8] concerns MDA-MB-231 cells. The series is described as follows: 2D cell invasion assay (Boyden chamber, Matrigel). The class given is cell-based, human. The note with it: 5 μM, 48 h, Matrigel-coated Boyden chamber. The procedure: Cell invasion capacity was analyzed using the Boyden chamber assay. The 24-well Boyden chambers with Matrigel-coated filters (8 μm pore size) were obtained from Becton-Dickinson (San Diego, CA, USA). Cells treated with vehicle or FAK inhibitors (SJP1602, VS-6063, GSK2256098) at a concentration of 5 μM were resuspended in serum-free media and 5 × 10^5 cells were added to the Matrigel-coated upper compartment of the invasion chambers. Fresh culture medium with 5% FBS was added to the lower compartment. After 48 h, cells on the upper side of the filter were removed using cotton swabs. The underside of the filter was fixed in 100% methanol, washed in PBS, and stained using crystal violet. Cells that invaded the Matrigel were analyzed using a microscope (Nikon, TE2000). Image analysis was performed using the color analysis function in Adobe Photoshop 2021 (Version 22.4.2, Adobe, Adobe (San Jose, CA, USA)). Quantitative data were obtained from color measurement records in Adobe Photoshop 2021.

Series [9] in a line: Cytotoxicity on normal cell line HEK293T. It is filed as cell-based. The note with it: human, HEK293T cells (normal cell line); read-out: Cytotoxicity on Normal Cell Lines IC50.
The subject of series [10] is MDA-MB-231 cells. The experiment in a line: Colony formation assay. The note with it: 1 μM or 2 μM, 11 days. The class given is cell-based, human. How it is done:
MDA-MB-231 cells were seeded at 2.5 × 10^2 cells/well in 12-well plates. FAK inhibitors (SJP1602, VS-6063, GSK2256098) were added 24 h post seeding without changing the media. After 7 days, the cells were replaced with fresh media containing 10% FBS and the same initial concentration of the FAK inhibitor. After 11 days, the cells were fixed with 4% PFA for 10 m at room temperature and stained with 0.5% crystal violet dissolved in 25% methanol for 20 min at room temperature. The cells were then washed with distilled water, dried, and images of the entire plate were obtained.

Another series has as its system BT-549 xenograft. The series is described as follows: BT-549 xenograft mouse model.
Series [11] has as its target T4, FAK [pY397] in MDA-MB-453 cells (Homo sapiens, UniProt Q05397).
T4 construct: endogenous in cells; host or cells: MDA-MB-453
The series is described as follows: FAK [pY397] ELISA in MDA-MB-453 cells. It is filed as cell-based. Conditions: MDA-MB-453, 1 h treatment, mean ± SEM (n = 3); read-out: IC50 FAK phosphorylation (pY397 ELISA). How it is done: as §1

T3 sequence (Q14289 whole entry): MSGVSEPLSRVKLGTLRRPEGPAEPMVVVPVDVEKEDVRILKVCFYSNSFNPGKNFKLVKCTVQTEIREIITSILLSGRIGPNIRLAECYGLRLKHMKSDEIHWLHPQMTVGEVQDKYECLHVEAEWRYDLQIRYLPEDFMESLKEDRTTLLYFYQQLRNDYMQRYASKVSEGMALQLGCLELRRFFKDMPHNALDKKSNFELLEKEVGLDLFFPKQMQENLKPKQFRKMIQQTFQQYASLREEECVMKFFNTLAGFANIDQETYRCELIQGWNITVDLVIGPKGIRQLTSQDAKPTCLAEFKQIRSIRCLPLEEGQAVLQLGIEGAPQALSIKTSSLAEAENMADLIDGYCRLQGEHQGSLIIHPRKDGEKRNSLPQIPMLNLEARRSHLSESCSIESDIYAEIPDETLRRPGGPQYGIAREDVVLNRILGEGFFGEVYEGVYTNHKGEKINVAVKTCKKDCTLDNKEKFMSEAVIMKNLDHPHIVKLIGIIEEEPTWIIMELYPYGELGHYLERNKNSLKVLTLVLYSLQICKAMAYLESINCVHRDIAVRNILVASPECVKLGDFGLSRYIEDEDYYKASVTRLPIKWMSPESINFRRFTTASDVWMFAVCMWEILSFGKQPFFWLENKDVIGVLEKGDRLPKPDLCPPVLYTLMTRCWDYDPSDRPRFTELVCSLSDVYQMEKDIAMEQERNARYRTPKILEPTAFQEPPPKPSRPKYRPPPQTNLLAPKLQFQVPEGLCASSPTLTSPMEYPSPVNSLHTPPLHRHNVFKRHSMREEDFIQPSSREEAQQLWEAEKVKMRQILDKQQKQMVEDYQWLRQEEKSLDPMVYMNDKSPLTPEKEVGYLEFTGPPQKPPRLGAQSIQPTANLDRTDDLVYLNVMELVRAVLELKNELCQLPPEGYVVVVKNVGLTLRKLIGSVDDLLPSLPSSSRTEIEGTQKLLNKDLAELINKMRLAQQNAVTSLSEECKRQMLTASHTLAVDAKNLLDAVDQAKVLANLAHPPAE
T4 sequence (Q05397 whole entry): as the sequence (Q05397 whole entry) above
Experimental for BT-549 xenograft: as §3

For `CONC(=O)c1ccccc1Nc1cc(Nc2cc(C)nn2C(C)C)ncc1Cl` [GSK2256098], the “serum-stimulated migration of MDA-MB-231 cells” value in the series on MDA-MB-231 cells [1] is reported as “did not affect”.

What is called IC50 is the concentration that inhibits the measured activity by half. For orientation: TGI means how far tumour growth fell short of that in controls. Regarding `CNC(=O)c1cccc(C)c1Nc1nc(Nc2ccc(N3CCN(C4C5CC6CC4CC(O)(C6)C5)CC3)cc2OC)ncc1C(F)(F)F` (centres unmarked) [SJP1602, 2-((2-((4-(4-((2s,5r)-5-hydroxyadamantan-2-yl)piperazin-1-yl)-2-methoxyphenyl)amino)-5-(trifluoromethyl)pyrimidin-4-yl)amino)-N,3-dimethylbenzamide], the half-maximal inhibitory concentration (IC50) is 20 ± 7 nM in series [2]; 3.7 ± 0.007 nM at FAK; 7280 nM in series [3]; 24.7 ± 0.919 nM at PYK2; greater than 10000 nM in series [5]; 9620 nM in series [6]. Moreover, the figures for the IC50 in series [9] and in series [11] were greater than 10000 nM and 43 ± 16 nM, respectively. Moreover, the “serum-stimulated migration of MDA-MB-231 cells” value in the series on MDA-MB-231 cells [1] was “considerably reduced”. The “signs of toxicity or weight loss in xenograft mice” value in series [4] is “no signs of toxicity or significant weight loss”. The “TNBC cell invasion (3D)” value in series [7] is “significantly inhibits”. Further, the “invasion of MDA-MB-231 cells” value in the series with MDA-MB-231 cells [8] is “markedly inhibited”. The “formation of MDA-MB-231 colonies” value in the series with MDA-MB-231 cells [10] was “dose-dependent decrease”. For the same compound, in the series on BT-549 xenograft (20 mg/kg), the “tumor growth inhibition (in words)” value is given as “pronounced inhibition of cancer growth”. Further, the TGI amounted to 76.0% in the series with BT-549 xenograft (20 mg/kg po QD) and 77.5% in the series on BT-549 xenograft (80 mg/kg po QD). In the series with BT-549 xenograft (80 mg/kg, day 21), the tumor weight entry is “did not statistically significantly decrease”.

With `CNC(=O)c1ccc(Nc2ncc(C(F)(F)F)c(NCc3nccnc3N(C)S(C)(=O)=O)n2)cc1` [VS-6063, Defactinib], the “tumor growth inhibition (in words)” value in the series on BT-549 xenograft (80 mg/kg) was “ineffective”. In addition, the TGI with BT-549 xenograft (80 mg/kg po QD) came out at 10.1%.
